Numbered stars: 1 amine (or outer) side, 2 acyl side, 3 side chain; on linkers, the order of the positions; unused ones are H or OH. Bridge positions count the residues as written; N and C are the ends. Square brackets hold non-standard residues; d marks the D form. Peptide text beside a SMILES is read from it. * marks the point of attachment. ξ: configuration not given here. Phe(3-CF3) = N[C@@H](Cc1cccc(C(F)(F)F)c1)C(=O)O; Ala(morpholin-4-yl) = N[C@@H](CN1CCOCC1)C(=O)O; Phe(4-COOH) = N[C@@H](Cc1ccc(C(=O)O)cc1)C(=O)O; Bip = N[C@@H](Cc1ccc(-c2ccccc2)cc1)C(=O)O; Phe(3-Me) = Cc1cccc(C[C@H](N)C(=O)O)c1; γGlu = O=C(O)[C@H](CCC(=O)[*:2])N[*:1]; NH(CH2)12COOH = O=C(O)CCCCCCCCCCCCN*; His(π-Me) = Cn1cncc1C[C@H](N)C(=O)O; Val(3-OH) = CC(C)(O)[C@H](N)C(=O)O; Val(3-F) = CC(C)(F)[C@H](N)C(=O)O; hArg = N=C(N)NCCCC[C@H](N)C(=O)O; 4Pal = N[C@@H](Cc1ccncc1)C(=O)O; Cha = N[C@@H](CC1CCCCC1)C(=O)O; Cit = NC(=O)NCCC[C@H](N)C(=O)O; Thr(3ξ) = CC(O)[C@H](N)C(=O)O; 12Ado = NCCCCCCCCCCCC(=O)O; hSer = N[C@@H](CCO)C(=O)O; Carboxymethyl = O=C(O)C*; Orn = NCCC[C@H](N)C(=O)O; Aun = NCCCCCCCCCCC(=O)O; Dab = NCC[C@H](N)C(=O)O; Dap = NC[C@H](N)C(=O)O; AEEA = NCCOCCOCC(=O)O; Ac3c = NC1(C(=O)O)CC1; Piv = CC(C)(C)C(=O)*; Sar = CNCC(=O)O

The target in this assay is T1, PD-1/PD-L1 interaction (PE-labeled human PD-L1-Ig binding to Jurkat cell line over-expressing human PD-1) (Homo sapiens, UniProt Q15116).
T1 construct: expressed in transfected cells; host or cells: Jurkat
T1 sequence (Q15116 25-288): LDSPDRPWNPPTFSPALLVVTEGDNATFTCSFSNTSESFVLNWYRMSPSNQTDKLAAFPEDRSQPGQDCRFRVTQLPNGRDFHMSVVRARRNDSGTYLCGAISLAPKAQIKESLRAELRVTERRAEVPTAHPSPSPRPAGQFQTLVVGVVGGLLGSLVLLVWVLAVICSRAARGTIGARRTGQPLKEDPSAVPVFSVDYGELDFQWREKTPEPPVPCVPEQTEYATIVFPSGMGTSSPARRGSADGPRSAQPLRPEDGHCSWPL
Put plainly: Jurkat-PD-1 Cell Binding High-Content Screening Assay (CBA). To be noted: Jurkat cell line over-expressing human PD-1; PE-labeled PD-L1-Ig 20 nM final; read-out: Jurkat hPD1-PDL1 IC50. In kind it is cell-based. The essentials:
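Read-out is high-content imaging of cell-bound phycoerythrin-tagged PD-L1-Ig on fixed, Hoechst-counterstained Jurkat cells that over-express human PD-1. Compound exposure lasts 2 h at 37° C before the labeled ligand (20 nM final) is added for a further hour.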
One may read the IC50 as the concentration that inhibits the measured activity by half. Consider `CC(C)C[C@H]1NC(=O)[C@H](CCCN)NC(=O)[C@H](C(C)C)NC(=O)[C@H](Cc2ccc(-c3ccccc3)cc2)NC(=O)[C@H](C(C)C)NC(=O)[C@H](Cc2c[nH]c3ccccc23)NC(=O)[C@H](CC(=O)O)NC(=O)[C@H](Cc2ccc(OCC(=O)O)cc2)NC(=O)[C@H](CN)NC(=O)CSC[C@@H](C(=O)N[C@@H](CCN)C(=O)NCCCCCCCCCCC(=O)O)NC(=O)[C@H](CCC(N)=O)NC(=O)[C@H](C(C)C)NC(=O)[C@H](CC2CCCCC2)NC(=O)[C@H](Cc2c[nH]cn2)NC1=O` [Compound 2793] ({CH2CO}-[Dap]Y(Carboxymethyl)DWV[Bip]V[Orn][dL]H[Cha]VQC[Dab][Aun]-OH; thioether N-14), for which the IC50 is 21.6 nM.

Regarding `Cc1cccc(C[C@@H]2NC(=O)[C@H](CC(=O)O)NC(=O)[C@H](Cc3ccc(OCC(=O)O)cc3)NC(=O)[C@H](CN)NC(=O)CSC[C@@H](C(=O)N(C)CC(=O)N[C@@H](CCC(=O)O)C(=O)NCCCCCCCCCCC(=O)O)NC(=O)[C@H]([C@@H](C)O)NC(=O)[C@H](C(C)C)NC(=O)[C@H](CC3CCCCC3)NC(=O)[C@H](CCN)NC(=O)[C@@H](CC(C)C)NC(=O)[C@H](CCCN)NC(=O)[C@H](CCCNC(N)=O)NC(=O)[C@H](Cc3ccc(-c4ccccc4)cc3)NC(=O)[C@H](C(C)C)NC2=O)c1` [Compound 2839] ({CH2CO}-[Dap]Y(Carboxymethyl)D[Phe(3-Me)]V[Bip][Cit][Orn][dL][Dab][Cha]VTC[Sar]E[Aun]-OH; thioether N-14), the half-maximal inhibitory concentration (IC50) came to 186 nM.

With `Cc1cccc(C[C@@H]2NC(=O)[C@H](CC(=O)O)NC(=O)[C@H](Cc3ccc(OCC(=O)O)cc3)NC(=O)[C@H](Cc3ccncc3)NC(=O)CSC[C@@H](C(=O)N[C@@H](CCN)C(=O)NCCOCCOCC(=O)NCCOCCOCC(=O)NCCCCCCCCCCC(=O)O)NC(=O)[C@H](CCC(=O)O)NC(=O)[C@H](C(C)(C)O)NC(=O)[C@H](CC3CCCCC3)NC(=O)[C@H](CCN)NC(=O)[C@@H](CC(C)C)NC(=O)[C@H](CCCN)NC(=O)[C@H](Cc3ccc(C(=O)O)cc3)NC(=O)[C@H](Cc3ccc(-c4ccccc4)cc3)NC(=O)[C@H](Cc3ccc(C(=O)O)cc3)NC2=O)c1` [Compound 3741] ({CH2CO}-[4Pal]Y(Carboxymethyl)D[Phe(3-Me)][Phe(4-COOH)][Bip][Phe(4-COOH)][Orn][dL][Dab][Cha][Val(3-OH)]EC[Dab][AEEA][AEEA][Aun]-OH; thioether N-14), the concentration for half-maximal inhibition (IC50) was 8.8 nM.

`Cc1cccc(C[C@@H]2NC(=O)[C@H](CC(=O)O)NC(=O)[C@H](Cc3ccc(OCC(=O)O)cc3)NC(=O)[C@H](CCO)NC(=O)CSC[C@@H](C(=O)N[C@@H](CCO)C(=O)N[C@@H](CO)C(=O)NCCCCCCCCCCCC(=O)O)NC(=O)[C@H](C(C)O)NC(=O)[C@H](C(C)C)NC(=O)[C@H](CC3CCCCC3)NC(=O)[C@H](CCN)NC(=O)[C@@H](CC(C)C)NC(=O)[C@H](CCCN)NC(=O)[C@H](CCCNC(N)=O)NC(=O)[C@H](Cc3ccc(-c4ccccc4)cc3)NC(=O)[C@H](C(C)C)NC2=O)c1` (stereo partly drawn) [Compound 3566] ({CH2CO}-[hSer]Y(Carboxymethyl)D[Phe(3-Me)]V[Bip][Cit][Orn][dL][Dab][Cha]V[Thr(3ξ)]C[hSer]S[12Ado]-OH; thioether N-14): the half-inhibitory concentration (IC50) was determined as 19.2 nM.

For the molecule `Cc1cccc(C[C@@H]2NC(=O)[C@H](CC(=O)O)NC(=O)[C@H](Cc3ccc(C(=O)O)cc3)NC(=O)[C@H](CCN)NC(=O)CSC[C@@H](C(=O)N[C@@H](CCN)C(=O)NCCOCCOCC(=O)NCCOCCOCC(=O)NCCCCCCCCCCCCC(=O)O)NC(=O)[C@H](Cc3c[nH]cn3)NC(=O)[C@H](C(C)(C)O)NC(=O)[C@H](CC3CCCCC3)NC(=O)[C@H](CCN)NC(=O)[C@@H](CC(C)C)NC(=O)[C@H](CCCN)NC(=O)[C@H](Cc3ccc(C(=O)O)cc3)NC(=O)[C@H](Cc3ccc(-c4ccccc4)cc3)NC(=O)[C@H](Cc3ccc(C(=O)O)cc3)NC2=O)c1` [Compound 2886] ({CH2CO}-[Dab][Phe(4-COOH)]D[Phe(3-Me)][Phe(4-COOH)][Bip][Phe(4-COOH)][Orn][dL][Dab][Cha][Val(3-OH)]HC[Dab][AEEA][AEEA]-{NH(CH2)12COOH}; thioether N-14), the IC50 is 10 nM.

Take `CC(C)C[C@H]1NC(=O)[C@H](CCCN)NC(=O)[C@H](C(C)C)NC(=O)[C@H](Cc2ccc(-c3ccccc3)cc2)NC(=O)[C@H](C(C)C)NC(=O)[C@H](Cc2c[nH]c3ccccc23)NC(=O)[C@H](CC(=O)O)NC(=O)[C@H](Cc2ccc(OCC(=O)O)cc2)NC(=O)[C@H](CCCCNC(=N)N)NC(=O)CSC[C@@H](C(=O)NCC(=O)NCCOCCOCC(=O)NCCCCCCCCCCCCC(=O)O)NC(=O)[C@H](CO)NC(=O)[C@H](C(C)C)NC(=O)[C@H](CC2CCCCC2)NC(=O)[C@H](CCN)NC1=O` [Compound 3043] ({CH2CO}-[hArg]Y(Carboxymethyl)DWV[Bip]V[Orn][dL][Dab][Cha]VSCG[AEEA]-{NH(CH2)12COOH}; thioether N-14): the half-maximal inhibitory concentration (IC50) came out at 15.4 nM.

`Cc1cccc(C[C@@H]2NC(=O)[C@H](CC(=O)O)NC(=O)[C@H](Cc3ccc(OCC(=O)O)cc3)NC(=O)[C@H](Cc3cncn3C)NC(=O)CSC[C@@H](C(=O)N[C@@H](CCN)C(=O)NCCCCCCCCCCC(=O)O)NC(=O)[C@H](CO)NC(=O)[C@H](C(C)(C)O)NC(=O)[C@H](CC3CCCCC3)NC(=O)[C@H](CCN)NC(=O)[C@@H](CC(C)C)NC(=O)[C@H](CCCN)NC(=O)[C@H](Cc3ccc(OCC(=O)O)cc3)NC(=O)[C@H](Cc3ccc(-c4ccccc4)cc3)NC(=O)[C@H](Cc3ccc(OCC(=O)O)cc3)NC2=O)c1` [Compound 2141] ({CH2CO}-[His(π-Me)]Y(Carboxymethyl)D[Phe(3-Me)]Y(Carboxymethyl)[Bip]Y(Carboxymethyl)[Orn][dL][Dab][Cha][Val(3-OH)]SC[Dab][Aun]-OH; thioether N-14): the concentration for half-maximal inhibition (IC50) is 10.9 nM.

As to `CC(C)C[C@H]1NC(=O)[C@H](CCCN)NC(=O)[C@H](C(C)C)NC(=O)[C@H](Cc2ccc(-c3ccccc3)cc2)NC(=O)[C@H](C(C)C)NC(=O)[C@H](Cc2c[nH]c3ccccc23)NC(=O)[C@H](CC(=O)O)NC(=O)[C@H](Cc2ccc(OCC(=O)O)cc2)NC(=O)[C@H](Cc2ccc(OCC(=O)O)cc2)NC(=O)CSC[C@@H](C(=O)N[C@@H](CCCCN)C(=O)NCCCCCCCCCCC(=O)O)NC(=O)[C@H](CN)NC(=O)[C@H](C(C)C)NC(=O)[C@H](CC2CCCCC2)NC(=O)[C@H](CCN)NC1=O` [Compound 2538] ({CH2CO}-Y(Carboxymethyl)Y(Carboxymethyl)DWV[Bip]V[Orn][dL][Dab][Cha]V[Dap]CK[Aun]-OH; thioether N-14), the concentration for half-maximal inhibition (IC50) came to 13.6 nM.

Take `Cc1cccc(C[C@@H]2NC(=O)[C@H](CC(=O)O)NC(=O)[C@H](Cc3ccc(OCC(=O)O)cc3)NC(=O)[C@H](CCNC(=O)C(C)(C)C)NC(=O)CSC[C@@H](C(=O)N[C@@H](CCN)C(=O)NCCCCCCCCCCC(=O)O)NC(=O)[C@H](CCC(N)=O)NC(=O)[C@H](C(C)(C)F)NC(=O)[C@H](CC3CCCCC3)NC(=O)[C@H](CCN)NC(=O)[C@@H](CC(C)C)NC(=O)[C@H](CCCN)NC(=O)[C@H](Cc3ccc(OCC(=O)O)cc3)NC(=O)[C@H](Cc3ccc(-c4ccccc4)cc3)NC(=O)[C@H](Cc3ccc(OCC(=O)O)cc3)NC2=O)c1` [Compound 2156] ({CH2CO}-[Dab](Piv)Y(Carboxymethyl)D[Phe(3-Me)]Y(Carboxymethyl)[Bip]Y(Carboxymethyl)[Orn][dL][Dab][Cha][Val(3-F)]QC[Dab][Aun]-OH; thioether N-14): the IC50 worked out at 9.8 nM.

As to `CC(C)C[C@H]1NC(=O)[C@H](CCCN)NC(=O)[C@H](Cc2ccc(C(=O)O)cc2)NC(=O)[C@H](Cc2ccc(-c3ccccc3)cc2)NC(=O)[C@H](Cc2ccc(C(=O)O)cc2)NC(=O)[C@H](Cc2cccc(C(F)(F)F)c2)NC(=O)[C@H](CC(=O)O)NC(=O)[C@H](Cc2ccc(OCC(=O)O)cc2)NC(=O)[C@H](CN2CCOCC2)NC(=O)CSC[C@@H](C(=O)N[C@@H](CCN)C(=O)NCCOCCOCC(=O)N[C@@H](CCC(=O)NCCOCCOCC(=O)NCCCCCCCCCCCCC(=O)O)C(=O)O)NC(=O)[C@H](CO)NC(=O)[C@H](C(C)(C)O)NC(=O)[C@H](CC2CCCCC2)NC(=O)[C@H](CCN)NC1=O` [Compound 2940] ({CH2CO}-[Ala(morpholin-4-yl)]Y(Carboxymethyl)D[Phe(3-CF3)][Phe(4-COOH)][Bip][Phe(4-COOH)][Orn][dL][Dab][Cha][Val(3-OH)]SC[Dab][AEEA][γGlu][AEEA]-{NH(CH2)12COOH}; thioether N-14), the 50% inhibitory concentration (IC50) is 14.3 nM.

Take `Cc1cccc(C[C@@H]2NC(=O)[C@H](CC(=O)O)NC(=O)[C@H](Cc3ccc(OCC(=O)O)cc3)NC(=O)C3(CC3)NC(=O)CSC[C@@H](C(=O)N[C@@H](CCN)C(=O)NCCCCCCCCCCC(=O)O)NC(=O)[C@H](CO)NC(=O)[C@H](C(C)(C)O)NC(=O)[C@H](CC3CCCCC3)NC(=O)[C@H](CCN)NC(=O)[C@@H](CC(C)C)NC(=O)[C@H](CCCN)NC(=O)[C@H](Cc3ccc(OCC(=O)O)cc3)NC(=O)[C@H](Cc3ccc(-c4ccccc4)cc3)NC(=O)[C@H](Cc3ccc(OCC(=O)O)cc3)NC2=O)c1` [Compound 2180] ({CH2CO}-[Ac3c]Y(Carboxymethyl)D[Phe(3-Me)]Y(Carboxymethyl)[Bip]Y(Carboxymethyl)[Orn][dL][Dab][Cha][Val(3-OH)]SC[Dab][Aun]-OH; thioether N-14): the IC50 amounted to 119 nM.

Take `Cc1cccc(C[C@@H]2NC(=O)[C@H](CC(=O)O)NC(=O)[C@H](Cc3ccc(OCC(=O)O)cc3)NC(=O)[C@H](CCCCNC(=N)N)NC(=O)CSC[C@@H](C(=O)NCC(=O)N[C@@H](CCC(=O)O)C(=O)NCCCCCCCCCCCC(=O)O)NC(=O)[C@H](CO)NC(=O)[C@H](C(C)C)NC(=O)[C@H](CC3CCCCC3)NC(=O)[C@H](C(C)O)NC(=O)[C@@H](CC(C)C)NC(=O)[C@H](CCCN)NC(=O)[C@H](CCCNC(N)=O)NC(=O)[C@H](Cc3ccc(-c4ccccc4)cc3)NC(=O)[C@H](C(C)C)NC2=O)c1` (stereo partly drawn) [Compound 3182] ({CH2CO}-[hArg]Y(Carboxymethyl)D[Phe(3-Me)]V[Bip][Cit][Orn][dL][Thr(3ξ)][Cha]VSCGE[12Ado]-OH; thioether N-14): the concentration for half-maximal inhibition (IC50) was 45.9 nM.

For the origin of these results see patent publication US20260022142A1, “MACROCYCLIC IMMUNOMODULATORS” (Bristol-Myers Squibb Company, priority 2022, published 2026).
